Test results: patent EP3811940B1, “SUBSTITUTED 4,5'-BITHIAZOLES AS INHIBITORS OF THE HUMAN DNA TOPOISOMERASE II” (Kemijski Institut, priority 2019, dated 2021)
Read-outs that look alike come from different tables or passages of the source.

Tests used:
human topo IIβ = target: T1, human topo IIβ (Homo sapiens, UniProt Q02880); test: kDNA decatenation assay catalysed by human topo IIβ; type: biochemical; conditions: for % Decatenated Assay 1 / % Decatenated Assay 2: % of decatenated kDNA; for % Decatenated Average: average of two assays
T1 construct: purchased Inspiralis (Norwich, UK)
Method: One U of human topo II (α or β) was incubated with 200 ng kDNA in a 30 µL reaction at 37°C for 30 minutes under the following conditions: 50 mM Tris HCl (pH 7.5), 125 mM NaCl, 10 mM MgCl2, 5 mM DTT, 0.5 mM EDTA, 0.1 mg/ml bovine serum albumin (BSA) and 1 mM ATP. Compounds 1 and 9 were serially diluted in DMSO and added to the reaction mixture before the addition of the enzyme. Etoposide was used as a control compound. Each reaction was then stopped by the addition of 30 µL chloroform/iso-amyl alcohol ([…]) and 30 µL Stop Dye (40 % sucrose (w/v), 100 mM Tris.HCl (pH 7.5), 10 mM EDTA, 0.5 µg/mL bromophenol blue), before being loaded on a 1% TAE gel run at 85 V for 90 minutes. Assays were performed at 4 concentrations of ligand: 3.9, 31.5, 125 and 500 µM. The final DMSO concentration in all reactions was 1 % (v/v).
(§1) Bands were visualized by the ethidium bromide staining for 15 minutes and destaining for subsequent 10 minutes. Gels were scanned using the documentation equipment (GeneGenius, Syngene, Cambridge, UK) and inhibition levels were calculated from band data obtained with gel scanning software (GeneTools, Syngene, Cambridge,UK). Experiment was performed in duplicates for all compounds.

human topo IIα = target: T2, human topo IIα (Homo sapiens, UniProt P11388); test: human topo IIα cleavage assay (linear DNA); type: biochemical
T2 construct: purchased Inspiralis (Norwich, UK)
Method: To determine if compounds act as topo II poisons, cleavage assay was performed for compounds 1 and 9.
Selected compounds were tested at four concentrations: 3.9, 31.5, 125 and 500 µM. The reaction was then incubated for additional 30 minutes with 0.2 % SDS and 0.5 µg/µL proteinase K. Subsequently the reaction was stopped by adding 30 µL of chloroform/iso-amyl alcohol ([…]) and 30 µL of Stop Dye (40 % sucrose (w/v), 100 mM Tris.HCl (pH 7.5), 10 mM EDTA, 0.5 µg/mL bromophenol blue), before sample being loaded on the 1 % TAE gel run at 80 V for 2 hours.
as §1, with “cleavage” for “inhibition”, “from the” for “from”, “by the” for “with”, “The human topo IIα cleavage assay” for “Experiment”, “collaboration with Inspiralis (Norwich, UK).” for “duplicates for all compounds.”

MCF-7 cells = test: MTS cytotoxicity assay, MCF-7; type: cell-based, human; conditions: Homo sapiens, interval in brackets
From the text: (§2) We determined the cytotoxicity of the tested compounds on human breast cancer MCF-7 and human hepatocellular carcinoma HepG2 cancer cell lines using MTS assay. Both selected human cancer cell lines are representative and well-established systems for cell-based evaluation of potential anticancer compounds. Etoposide was again used as a positive control (PC).
(§3) In the first step we performed the initial screening of compounds 1-14 at one concentration. […] Exponentially growing cells were exposed to all compounds for 24 h and the results are represented in Figure 3A.
(§4) In vitro cytotoxicity of investigated compounds was evaluated in two human cancer cell lines: the […] cell lines. The HepG2 cells (ATCC) were cultivated at 37 °C and 5 % CO2 in MEME medium (M2414, Sigma) supplemented with 10 % FBS, 2 mM L-Glutamine, 1 % NEAA, 2.2 g/L NaHCO3, 1 mM sodium pyruvate and 100 IU/mL penicillin/ streptomycin and MCF-7 (ATCC) were cultivated in Eagle's MEM medium (M5650, Sigma), supplemented with 10 % fetal bovine serum, 2 mM glutamine, and 100 IU/mL penicillin/streptomycin. After the exposure to the tested compounds the viability of HepG2 and MCF-7 cells was determined by MTS tetrazolium reduction assay. The cells were seeded onto 96-well microplates (Nunc, TermoFisher Scientific, Waltham, MA, USA) at densities of 8000 cells per well (HepG2) and 7000 cells per well (MCF-7) in […] growth medium and incubated overnight to attach. The next day, the growth medium was replaced by the fresh complete growth medium containing appropriate concentrations of the compounds. […] Finally, the absorbance was measured at wavelength of 490 nm using a Microplate Reader (Synergy MX, BioTek, Winooski, VT, USA). […] Assay was performed at 5 concentrations of each compound; 2, 25, 50, 100 and 200 µM for compounds 1, 7 and 14 and 1, 12.5, 25, 50, 100 µM for compounds 9 and 10. […] Cell viability was determined by comparing the OD (optical density) of the wells containing the cells treated with investigated compounds with those of solvent control cells and presented as % of cell viability ± SD. Experiments were performed three times independently each time in at least three replicates. EC50 values were calculated by non-linear regression analysis using GraphPad Prism 7.0 Software. Statistical significance between treated groups and the control was determined by One-way analysis of variance and Dunnett's Multiple Comparison Test.

HepG2 cells = test: MTS cytotoxicity assay, HepG2; type: cell-based, human; conditions: Homo sapiens, interval in brackets
From the text: as §2, §3, §4

[1] = MCF7, read-out: EC50 [µM] MCF-7 (24h), 24h exposure
[2] = MCF7, 72h exposure, read-out: EC50 [µM] MCF-7 (72h)
[3] = HepG2, read-out: EC50 [µM] HepG2 (24h), 24h exposure
[4] = HepG2, 72h exposure, read-out: EC50 [µM] HepG2 (72h)

T2 sequence (P11388 whole entry): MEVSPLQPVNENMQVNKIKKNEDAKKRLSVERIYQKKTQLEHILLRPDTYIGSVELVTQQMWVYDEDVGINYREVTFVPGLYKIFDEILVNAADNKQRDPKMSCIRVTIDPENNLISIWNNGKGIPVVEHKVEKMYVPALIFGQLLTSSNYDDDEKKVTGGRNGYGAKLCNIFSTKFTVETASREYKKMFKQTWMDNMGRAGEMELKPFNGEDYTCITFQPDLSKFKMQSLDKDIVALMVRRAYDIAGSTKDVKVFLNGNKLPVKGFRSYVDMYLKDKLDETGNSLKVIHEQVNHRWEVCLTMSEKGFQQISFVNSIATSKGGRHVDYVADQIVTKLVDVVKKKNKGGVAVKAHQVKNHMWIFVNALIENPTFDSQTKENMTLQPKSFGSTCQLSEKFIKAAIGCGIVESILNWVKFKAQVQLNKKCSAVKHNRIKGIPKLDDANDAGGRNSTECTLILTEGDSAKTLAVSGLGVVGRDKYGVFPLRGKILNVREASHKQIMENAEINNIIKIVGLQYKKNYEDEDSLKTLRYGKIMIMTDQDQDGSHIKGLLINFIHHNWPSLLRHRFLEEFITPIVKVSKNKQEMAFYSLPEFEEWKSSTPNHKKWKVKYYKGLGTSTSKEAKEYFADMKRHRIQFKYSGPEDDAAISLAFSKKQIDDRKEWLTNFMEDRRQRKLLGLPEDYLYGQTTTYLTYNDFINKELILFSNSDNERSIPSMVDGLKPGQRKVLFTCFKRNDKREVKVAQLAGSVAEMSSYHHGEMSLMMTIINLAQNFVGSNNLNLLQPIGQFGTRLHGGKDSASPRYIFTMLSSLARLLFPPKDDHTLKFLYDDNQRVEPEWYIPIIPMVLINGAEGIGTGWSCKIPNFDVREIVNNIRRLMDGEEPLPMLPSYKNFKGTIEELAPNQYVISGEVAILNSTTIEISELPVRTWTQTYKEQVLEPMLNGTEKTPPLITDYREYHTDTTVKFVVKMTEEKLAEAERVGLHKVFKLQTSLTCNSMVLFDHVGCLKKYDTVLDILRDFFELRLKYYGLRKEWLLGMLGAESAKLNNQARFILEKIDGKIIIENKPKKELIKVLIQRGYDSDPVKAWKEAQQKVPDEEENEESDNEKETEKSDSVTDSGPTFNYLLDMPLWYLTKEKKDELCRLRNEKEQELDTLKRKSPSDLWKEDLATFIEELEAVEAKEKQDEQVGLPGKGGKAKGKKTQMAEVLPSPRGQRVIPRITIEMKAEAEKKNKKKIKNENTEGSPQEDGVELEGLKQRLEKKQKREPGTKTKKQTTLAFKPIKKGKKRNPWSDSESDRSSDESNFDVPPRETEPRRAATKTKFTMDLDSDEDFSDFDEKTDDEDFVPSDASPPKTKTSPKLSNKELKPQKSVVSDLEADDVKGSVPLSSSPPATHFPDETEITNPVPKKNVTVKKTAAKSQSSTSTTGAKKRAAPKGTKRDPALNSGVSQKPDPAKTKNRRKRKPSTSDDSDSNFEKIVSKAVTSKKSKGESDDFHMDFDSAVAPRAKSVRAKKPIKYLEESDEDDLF
T1 sequence (Q02880 whole entry): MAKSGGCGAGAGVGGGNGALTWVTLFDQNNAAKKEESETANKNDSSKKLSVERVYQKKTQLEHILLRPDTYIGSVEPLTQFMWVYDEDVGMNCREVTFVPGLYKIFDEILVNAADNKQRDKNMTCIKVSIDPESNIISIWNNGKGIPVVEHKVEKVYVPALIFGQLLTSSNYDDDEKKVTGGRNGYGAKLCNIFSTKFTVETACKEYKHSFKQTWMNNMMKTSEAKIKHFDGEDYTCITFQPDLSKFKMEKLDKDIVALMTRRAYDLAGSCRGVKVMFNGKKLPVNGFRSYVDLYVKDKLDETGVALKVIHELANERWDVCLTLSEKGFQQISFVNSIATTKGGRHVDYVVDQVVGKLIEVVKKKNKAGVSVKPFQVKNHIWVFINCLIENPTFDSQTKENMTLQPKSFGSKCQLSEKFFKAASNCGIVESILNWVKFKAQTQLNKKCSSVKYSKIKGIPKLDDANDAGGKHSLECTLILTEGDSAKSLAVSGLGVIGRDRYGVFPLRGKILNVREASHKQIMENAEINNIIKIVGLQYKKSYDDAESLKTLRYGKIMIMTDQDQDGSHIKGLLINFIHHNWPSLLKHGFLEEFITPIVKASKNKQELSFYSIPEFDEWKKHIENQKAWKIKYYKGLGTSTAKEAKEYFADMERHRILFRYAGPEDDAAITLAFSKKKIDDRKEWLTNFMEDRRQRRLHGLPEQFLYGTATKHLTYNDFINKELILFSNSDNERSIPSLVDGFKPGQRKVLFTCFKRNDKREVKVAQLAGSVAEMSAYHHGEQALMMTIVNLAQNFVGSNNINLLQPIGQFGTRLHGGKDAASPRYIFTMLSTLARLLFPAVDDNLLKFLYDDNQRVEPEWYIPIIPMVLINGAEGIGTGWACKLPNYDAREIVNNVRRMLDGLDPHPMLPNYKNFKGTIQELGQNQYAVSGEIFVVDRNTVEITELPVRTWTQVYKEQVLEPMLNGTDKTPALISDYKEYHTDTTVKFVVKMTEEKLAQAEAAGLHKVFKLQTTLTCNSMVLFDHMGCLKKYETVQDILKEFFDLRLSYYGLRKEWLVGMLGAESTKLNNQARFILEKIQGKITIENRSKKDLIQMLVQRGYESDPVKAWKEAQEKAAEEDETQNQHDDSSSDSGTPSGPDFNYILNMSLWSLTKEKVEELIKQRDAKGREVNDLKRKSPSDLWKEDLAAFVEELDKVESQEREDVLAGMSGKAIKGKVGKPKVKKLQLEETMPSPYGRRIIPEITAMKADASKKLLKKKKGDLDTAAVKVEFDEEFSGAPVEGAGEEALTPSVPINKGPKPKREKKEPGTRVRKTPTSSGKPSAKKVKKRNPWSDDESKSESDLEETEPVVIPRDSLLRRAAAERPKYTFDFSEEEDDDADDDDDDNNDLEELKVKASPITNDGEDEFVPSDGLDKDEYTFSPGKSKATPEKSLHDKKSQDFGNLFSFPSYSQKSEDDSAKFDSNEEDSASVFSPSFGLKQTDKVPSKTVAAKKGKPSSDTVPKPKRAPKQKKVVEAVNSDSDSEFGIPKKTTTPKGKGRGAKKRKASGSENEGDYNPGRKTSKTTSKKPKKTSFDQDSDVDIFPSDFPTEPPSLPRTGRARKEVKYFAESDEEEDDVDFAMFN

SMILES | % Decatenated Assay 1 (human topo IIβ; 3.9 µM) [%] | % Decatenated Assay 2 (human topo IIβ; 3.9 µM) [%] | % Decatenated Assay 1 (human topo IIβ; 31.5 µM) [%] | % Decatenated Assay 2 (human topo IIβ; 31.5 µM) [%] | % Decatenated Average (human topo IIβ; 31.5 µM) [%] | % Decatenated Assay 1 (human topo IIβ; 125 µM) [%] | % Decatenated Assay 2 (human topo IIβ; 125 µM) [%] | % Decatenated Average (human topo IIβ; 125 µM) [%] | % Decatenated Assay 1 (human topo IIβ; 500 µM) [%] | % Decatenated Assay 2 (human topo IIβ; 500 µM) [%] | % Decatenated Average (human topo IIβ; 500 µM) [%] | % Linear Average (human topo IIα; 3.9 µM) [%] | % Linear (human topo IIα; 3.9 µM, % Linear) [%] | % Linear (human topo IIα; 3.9 µM, first % Linear column) [%] | % Linear Average (human topo IIα; 31.5 µM) [%] | % Linear (human topo IIα; 31.5 µM, % Linear) [%] | % Linear (human topo IIα; 31.5 µM, first % Linear column) [%] | % Linear Average (human topo IIα; 125 µM) [%] | % Linear (human topo IIα; 125 µM, % Linear) [%] | % Linear (human topo IIα; 125 µM, first % Linear column) [%] | further results
Cc1nc(N)sc1-c1csc(Nc2ccc(C(F)(F)F)cc2)n1 [Compound 1, 4'-methyl-N2-(4-(trifluoromethyl)phenyl)-[4,5'-bithiazole]-2,2'-diamine] | 87.3 | 95.5 | 78.6 | 79.7 | 79.2 | 0 | 0 | 0 | 0 | 0 | 0 | 6.81 | 5.57 | 8.05 | 7.04 | 7.77 | 6.32 | 2.94 | 2.85 | 3.02 | % Decatenated Average (human topo IIβ; 3.9 µM): 91.3%; inhibition at 31.5 µM (human topo IIβ; 31.5 µM): 20.8%; % of inhibition of decatenation (human topo IIβ; 125 µM): fully inhibited; % of inhibition of decatenation (human topo IIβ; 500 µM): fully inhibited; % Linear Average (human topo IIα; 500 µM): 2.72%; % Linear (human topo IIα; 500 µM, % Linear): 2.98%; % Linear (human topo IIα; 500 µM, first % Linear column): 2.45%; EC50 (MCF-7 cells; [1]): 65 µM; EC50 (MCF-7 cells; [2]): 59.5 µM; EC50 (HepG2 cells; [3]): 72.8 µM; EC50 (HepG2 cells; [4]): 46.8 µM
COc1cc([C@@H]2c3cc4c(cc3[C@@H](O[C@@H]3O[C@@H]5CO[C@@H](C)O[C@H]5[C@H](O)[C@H]3O)[C@H]3COC(=O)[C@H]23)OCO4)cc(OC)c1O [Etoposide, etoposide, reference compound] | 100.0 | 100.0 | 94.0 | 92.8 | 93.4 | 24.6 | 23.1 | 23.9 | 150 | 14.4 | 14.7 | 17.32 | 11.88 | 22.76 | 34.63 | 36.26 | 33.00 | 41.13 | 36.91 | 45.35 | % Linear Average (human topo IIα; 500 µM): 45.71%; % Linear (human topo IIα; 500 µM, % Linear): 48.40%; % Linear (human topo IIα; 500 µM, first % Linear column): 43.03%; amount of linear DNA (poison activity) (human topo IIα; titration 3.9, 31.5, 125 and 500 µM, result in words): increased amount of linear DNA; EC50 (MCF-7 cells; [1]): 320 µM; EC50 (MCF-7 cells; [2]): 12.6 µM; EC50 (HepG2 cells; [3]): 196 µM; EC50 (HepG2 cells; [4]): 25.8 µM
CC(=O)Nc1ccc(Nc2nc(-c3sc(NC(C)=O)nc3C)cs2)cc1 [Compound 9, N-(4-((2'-acetamido-4'-methyl-[4,5'-bithiazol]-2-yl)amino)phenyl)acetamide] | 87.0 | 75.6 | 80.1 | 73.3 | 76.7 | 30.5 | 21.7 | 26.1 | 17.5 | 5.3 | 11.4 | 6.26 | 7.03 | 5.49 | 7.26 | 6.75 | 7.77 | 4.72 | 4.60 | 4.84 | % Decatenated Average (human topo IIβ; 3.9 µM): 81.3%; inhibition at 125 µM (human topo IIβ; 125 µM): 73.9%; inhibition at 500 µM (human topo IIβ; 500 µM): 88.6%; % Linear Average (human topo IIα; 500 µM): 2.60%; % Linear (human topo IIα; 500 µM, % Linear): 2.25%; % Linear (human topo IIα; 500 µM, first % Linear column): 2.95%; EC50 (MCF-7 cells; [1]): 15 µM; EC50 (MCF-7 cells; [2]): 13.8 µM; EC50 (HepG2 cells; [3]): 73.5 µM; EC50 (HepG2 cells; [4]): 23.5 µM
